# Data published in ChEMBL document CHEMBL1122531 (J Med Chem, 1984).
# Tests used:
# [1] = system: Mus musculus; assay: Compound was evaluated in vivo for its effective dose at which half of the mice were effected using hotplate assay (HPA) by administering the compound perorally (po).; type: functional
# [2] = system: Mus musculus; assay: Compound was evaluated in vivo for its effective dose at which half of the mice were effected using hotplate assay (HPA) by administering the compound subcutaneously.; type: functional; conditions: sc
# [3] = molecular target: T1, Opioid receptor (Rattus norvegicus, UniProt P33533+P34975+P33535); type: cell membranes, Brain, Membrane
# [4] = molecular target: T1, Opioid receptor; type: cell membranes, Brain, Membrane; remark: listed apart in the source
# [5] = system: Oryctolagus cuniculus; assay: Compound was evaluated in vivo for the respiratory activity in four conscious rabbits. The percent change in respiration rate in comparison to the 10-minute period prior to the injection, dose 0.17 kg/uM; type: functional
# [6] = system: Mus musculus; assay: Compound was evaluated in vivo for its effective dose at which half of the mice were effected using hotplate assay (HPA) by administering the compound perorally (po); type: functional
# [7] = system: Mus musculus; assay: Compound was evaluated in vivo for its effective dose at which half of the mice were effected using Nilsen assay (NA) by administering the compound Subcutaneously; type: functional; conditions: sc
# [8] = system: Mus musculus; assay: Compound was evaluated in vivo for its effective dose at which half of the mice were effected using hotplate assay (HPA) by administering the compound subcutaneously; type: functional; conditions: sc
# [9] = system: Mus musculus; assay: Compound was evaluated in vivo for its effective dose at which half of the mice were effected using Nilsen assay (NA) by administering the compound perorally (po); type: functional
# [10] = system: Mus musculus; assay: In vivo inhibition of subcutaneously administered naloxone-elicited opioid type withdrawal jumping (IWJ) after 72 hours in physically dependent male mice (strain Fullinsdorf-Albino SPF), dose 0.17 kg/uM; type: functional; conditions: sc
# [11] = system: Oryctolagus cuniculus; assay: Compound was evaluated in vivo for the respiratory activity in four conscious rabbits. The percent change of the respiratory volume in comparison to the 10-minute prior to the injection, dose 0.17 kg/uM; type: functional
# [12] = system: Oryctolagus cuniculus; assay: Compound was evaluated in vivo for the respiratory activity in four conscious rabbits. The percent change in respiration rate in comparison to the 10-minute period prior to the injection, dose 0.67 kg/uM; type: functional
# [13] = system: Mus musculus; assay: In vivo inhibition of subcutaneously administered naloxone-elicited opioid type withdrawal jumping (IWJ) after 72 hours in physically dependent male mice (strain Fullinsdorf-Albino SPF).; type: functional; conditions: sc
# [14] = system: Mus musculus; assay: Compound was evaluated in vivo for its effective dose at which half of the mice were effected using Nilsen assay (NA) by administering the compound perorally (po).; type: functional
# [15] = system: Oryctolagus cuniculus; assay: Compound was evaluated in vivo for the respiratory activity in four conscious rabbits. The percent change of the respiratory volume in comparison to the 10-minute prior to the injection, dose 0.67 kg/uM; type: functional
# [16] = system: Mus musculus; assay: In vivo inhibition of subcutaneously administered naloxone-elicited opioid type withdrawal jumping (IWJ) after 72 hours in physically dependent male mice (strain Fullinsdorf-Albino SPF), dose 0.08 kg/uM; type: functional; conditions: sc
# [17] = system: Oryctolagus cuniculus; assay: Compound was evaluated in vivo for the respiratory activity in four conscious rabbits. The percent change in respiration rate in comparison to the 10-minute period prior to the injection, dose 0.08 kg/uM; type: functional
# [18] = system: Oryctolagus cuniculus; assay: Compound was evaluated in vivo for the respiratory activity in four conscious rabbits. The percent change of the respiratory volume in comparison to the 10-minute prior to the injection, dose 0.08 kg/uM; type: functional
# [19] = system: Oryctolagus cuniculus; assay: Compound was evaluated in vivo for the respiratory activity in four conscious rabbits. The percent change in respiration rate in comparison to the 10-minute period prior to the injection, dose 0.41 g/uM; type: functional
# [20] = system: Mus musculus; assay: In vivo inhibition of subcutaneously administered naloxone-elicited opioid type withdrawal jumping (IWJ) after 72 hours in physically dependent male mice (strain Fullinsdorf-Albino SPF). Dose 0.41 g/uM; type: functional; conditions: sc
# [21] = system: Oryctolagus cuniculus; assay: Compound was evaluated in vivo for the respiratory activity in four conscious rabbits. The percent change of the respiratory volume in comparison to the 10-minute prior to the injection, dose 0.41 g/uM; type: functional
# [22] = species: Mus musculus; assay: animal or person; conditions: sc, 72 h
# [23] = system: Oryctolagus cuniculus; assay: Compound was evaluated in vivo for the respiratory activity in four conscious rabbits. The percent change in respiration rate in comparison to the 10-minute period prior to the injection, dose 0.03 kg/uM; type: functional
# [24] = system: Oryctolagus cuniculus; assay: Compound was evaluated in vivo for the respiratory activity in four conscious rabbits. The percent change of the respiratory volume in comparison to the 10-minute prior to the injection, dose 0.03 kg/uM; type: functional
# [25] = system: Oryctolagus cuniculus; assay: Compound was evaluated in vivo for the respiratory activity in four conscious rabbits. The percent change of the respiratory volume in comparison to the 10-minute prior to the injection, dose 0.005 g/uM; type: functional
# [26] = system: Oryctolagus cuniculus; assay: Compound was evaluated in vivo for the respiratory activity in four conscious rabbits. The percent change in respiration rate in comparison to the 10-minute period prior to the injection, dose 0.005 g/uM; type: functional
# [27] = system: Mus musculus; assay: In vivo inhibition of subcutaneously administered naloxone-elicited opioid type withdrawal jumping (IWJ) after 72 hours in physically dependent male mice (strain Fullinsdorf-Albino SPF). Dose 0.005 g/uM; type: functional; conditions: sc
# [28] = system: Mus musculus; assay: In vivo inhibition of subcutaneously administered naloxone-elicited opioid type withdrawal jumping (IWJ) after 72 hours in physically dependent male mice (strain Fullinsdorf-Albino SPF), dose 0.017 g/uM; type: functional; conditions: sc
# [29] = system: Oryctolagus cuniculus; assay: Compound was evaluated in vivo for the respiratory activity in four conscious rabbits. The percent change of the respiratory volume in comparison to the 10-minute prior to the injection, dose 0.017 g/uM; type: functional
# [30] = system: Oryctolagus cuniculus; assay: Compound was evaluated in vivo for the respiratory activity in four conscious rabbits. The percent change in respiration rate in comparison to the 10-minute period prior to the injection, dose 0.017 g/uM; type: functional
# [31] = system: Mus musculus; assay: In vivo inhibition of subcutaneously administered naloxone-elicited opioid type withdrawal jumping (IWJ) after 72 hours in physically dependent male mice (strain Fullinsdorf-Albino SPF), dose 0.18 kg/uM; type: functional; conditions: sc
# [32] = system: Oryctolagus cuniculus; assay: Compound was evaluated in vivo for the respiratory activity in four conscious rabbits. The percent change of the respiratory volume in comparison to the 10-minute prior to the injection, dose 0.18 kg/uM; type: functional
# [33] = system: Oryctolagus cuniculus; assay: Compound was evaluated in vivo for the respiratory activity in four conscious rabbits. The percent change in respiration rate in comparison to the 10-minute period prior to the injection, dose 0.18 kg/uM; type: functional
smiles,measurement,setting,value
CN1CC[C@]23c4c5cccc4O[C@H]2C(=O)CC[C@@]3(O)[C@H]1C5,ED50,[1],31 µmol/kg
same,ED50,[2],1.6 µmol/kg
same,IC50,[3],16000 pM
same,IC50,[4],1400 pM
CO[C@@]12CCC(=O)C[C@@]13CCN(C)[C@@H]2Cc1cccc(O)c13,Change,[5],-32%
same,ED50,[6],1.2 µmol/kg
same,IC50,[3],700 pM
same,ED50,[7],0.4 µmol/kg
same,ED50,[8],0.5 µmol/kg
same,ED50,[9],1 µmol/kg
same,ED50,[10],2.9 µmol/kg
same,IC50,[4],20 pM
same,Change,[11],-40%
COc1cccc2c1[C@]13CCN(C)[C@H](C2)[C@]1(O)CCC(=O)C3,ED50,[6],5 µmol/kg
same,IC50,[3],3700 pM
same,ED50,[8],0.5 µmol/kg
same,IC50,[4],750 pM
CO[C@@]12CCC(=O)[C@@H]3Oc4cccc5c4[C@@]31CCN(C)[C@@H]2C5,ED50,[1],2.8 µmol/kg
same,Change,[12],-75%
same,ED50,[2],0.3 µmol/kg
same,ED50,[13],14 µmol/kg
same,ED50,[14],4.7 µmol/kg
same,IC50,[3],16000 pM
same,ED50,[7],0.3 µmol/kg
same,Change,[15],-68%
same,IC50,[4],200 pM
CN1CC[C@]23c4c5ccc(O)c4O[C@H]2C(=O)CC[C@@]3(O)[C@H]1C5 [OXYMORPHONE],ED50,[1],3 µmol/kg
same,ED50,[2],0.3 µmol/kg
COc1cccc2c1[C@]13CCN(C)[C@H](C2)[C@]1(OC)CCC(=O)C3,ED50,[16],2.4 µmol/kg
same,ED50,[6],1.1 µmol/kg
same,IC50,[3],3500 pM
same,Change,[17],-66 µM/kg
same,ED50,[7],0.06 µmol/kg
same,ED50,[8],0.06 µmol/kg
same,ED50,[9],1.6 µmol/kg
same,Change,[18],-64%
same,IC50,[4],300 pM
CN1CC[C@]23CC(=O)CC[C@@]2(O)[C@H]1Cc1ccccc13,IC50,[3],12000 pM
same,ED50,[7],2 µmol/kg
same,ED50,[8],1.8 µmol/kg
same,IC50,[4],300 pM
Br.CO[C@@]12CCC(=O)[C@@H]3Oc4c(OCc5ccccc5)ccc5c4[C@@]31CCN(C)C2C5,ED50,[2],2.7 µmol/kg
same,Change,[19],-38%
same,ED50,[20],5.3 µmol/kg
same,IC50,[3],9000 pM
same,Change,[21],-32%
same,IC50,[4],800 pM
CN1CC[C@]23c4c5ccc(O)c4O[C@H]2[C@@H](O)C=C[C@H]3[C@H]1C5.Cl [MORPHINE HYDROCHLORIDE],ED50,[22],59 µmol/kg
same,Change,[23],-43%
same,Change,[24],38.3%
Br.CO[C@@]12CCC(=O)[C@@H]3Oc4c(O)ccc5c4[C@@]31CCN(C)C2C5,ED50,[1],0.5 µmol/kg
same,Change,[25],-26%
same,ED50,[2],0.008 µmol/kg
same,Change,[26],-33%
same,ED50,[14],0.5 µmol/kg
same,IC50,[3],80 pM
same,ED50,[27],0.08 µmol/kg
same,ED50,[7],0.02 µmol/kg
same,IC50,[4],3 pM
COc1ccc2c(c1OC)[C@]13CCN(C)[C@H](C2)[C@]1(OC)CCC(=O)C3,ED50,[28],1.6 µmol/kg
same,ED50,[6],0.3 µmol/kg
same,IC50,[3],850 pM
same,ED50,[7],0.05 µmol/kg
same,Change,[29],-48%
same,Change,[30],-50%
same,ED50,[8],0.06 µmol/kg
same,ED50,[9],0.6 µmol/kg
same,IC50,[4],85 pM
CN1CC[C@]23CC(=O)CC[C@@]2(O)[C@H]1Cc1cccc(O)c13,ED50,[6],3.5 µmol/kg
same,IC50,[3],3400 pM
same,ED50,[8],2 µmol/kg
same,IC50,[4],200 pM
COc1ccc2c(c1OC)[C@]13CCN(C)[C@H](C2)[C@]1(O)CCC(=O)C3,IC50,[3],1200 pM
same,ED50,[7],0.3 µmol/kg
same,ED50,[8],0.4 µmol/kg
same,IC50,[4],500 pM
CO[C@@]12CCC(=O)C[C@@]13CCN(C)[C@@H]2Cc1ccccc13,ED50,[31],7 µmol/kg
same,Change,[32],-48%
same,Change,[33],-52%
same,ED50,[6],2.2 µmol/kg
same,IC50,[3],6000 pM
same,ED50,[7],0.2 µmol/kg
same,ED50,[8],0.1 µmol/kg
same,ED50,[9],2.3 µmol/kg
same,IC50,[4],200 pM
COc1ccc2c(c1O)[C@]13CCN(C)[C@H](C2)[C@]1(OC)CCC(=O)C3,ED50,[6],2.4 µmol/kg
same,IC50,[3],11000 pM
same,ED50,[7],0.5 µmol/kg
same,ED50,[8],0.8 µmol/kg
same,ED50,[9],5.4 µmol/kg
same,IC50,[4],500 pM
